≈ marks a conversion by molar mass, not a printed value.
Assays:
SK-MEL-2 [1] = assay: Anticancer activity against human SK-MEL-2 cells assessed as total cell growth inhibition incubated for 48 hrs by SRB assay; format: functional
SK-MEL-28 = assay: Anticancer activity against human SK-MEL-28 cells assessed as total cell growth inhibition incubated for 48 hrs by SRB assay; format: functional
HOP-62 = assay: Anticancer activity against human HOP-62 cells assessed as cell growth inhibition incubated for 48 hrs by SRB assay; format: functional
[2] = n-Octanol/PBS partition coefficient, logD of the compound at pH 7.4; format: physicochemical
NCI-H23 = assay: Anticancer activity against human NCI-H23 cells assessed as total cell growth inhibition incubated for 48 hrs by SRB assay; format: functional
SN12C = assay: Anticancer activity against human SN12C cells assessed as total cell growth inhibition incubated for 48 hrs by SRB assay; format: functional
SF-539 = assay: Anticancer activity against human SF-539 cells assessed as total cell growth inhibition incubated for 48 hrs by SRB assay; format: functional
HCC 2998 = assay: Anticancer activity against human HCC 2998 cells assessed as total cell growth inhibition incubated for 48 hrs by SRB assay; format: functional
UACC-62 = assay: Anticancer activity against human UACC-62 cells assessed as total cell growth inhibition incubated for 48 hrs by SRB assay; format: functional
CAKI-1 = assay: Anticancer activity against human CAKI-1 cells assessed as cell growth inhibition incubated for 48 hrs by SRB assay; format: functional
DU-145 = assay: Anticancer activity against human DU-145 cells assessed as total cell growth inhibition incubated for 48 hrs by SRB assay; format: functional
SK-MEL-2 [3] = assay: Anticancer activity against human SK-MEL-2 cells assessed as cell growth inhibition incubated for 48 hrs by SRB assay; format: functional
HL-60 = assay: Anticancer activity against human HL-60 cells assessed as total cell growth inhibition incubated for 48 hrs by SRB assay; format: functional
LOX IMVI [4] = assay: Anticancer activity against human LOX IMVI cells assessed as cell growth inhibition incubated for 48 hrs by SRB assay; format: functional
SNB-19 = assay: Anticancer activity against human SNB-19 cells assessed as total cell growth inhibition incubated for 48 hrs by SRB assay; format: functional
KM12 = assay: Anticancer activity against human KM12 cells assessed as cell growth inhibition incubated for 48 hrs by SRB assay; format: functional
SK-MEL-5 = assay: Anticancer activity against human SK-MEL-5 cells assessed as total cell growth inhibition incubated for 48 hrs by SRB assay; format: functional
IGROV-1 [5] = assay: Anticancer activity against human IGROV-1 cells assessed as cell growth inhibition incubated for 48 hrs by SRB assay; format: functional
[6] = target: Vascular endothelial growth factor receptor 2 (Homo sapiens) (UniProt P35968); assay: Inhibition of KDR (unknown origin) at 1 uM in presence of ATP by hotspot kinase assay
MCF7 [7] = assay: Anticancer activity against human MCF7 cells assessed as total cell growth inhibition incubated for 48 hrs by SRB assay; format: functional
RPMI-8226 = assay: Anticancer activity against human RPMI-8226 cells assessed as total cell growth inhibition incubated for 48 hrs by SRB assay; format: functional
NCI-H522 = assay: Anticancer activity against human NCI-H522 cells assessed as cell growth inhibition incubated for 48 hrs by SRB assay; format: functional
HT-29 = assay: Anticancer activity against human HT-29 cells assessed as total cell growth inhibition incubated for 48 hrs by SRB assay; format: functional
EKVX = assay: Anticancer activity against human EKVX cells assessed as total cell growth inhibition incubated for 48 hrs by SRB assay; format: functional
[8] = Aqueous solubility of compound by HPLC analysis; format: physicochemical
CCRF-CEM = assay: Anticancer activity against human CCRF-CEM cells assessed as cell growth inhibition incubated for 48 hrs by SRB assay; format: functional
[9] = target: Vascular endothelial growth factor receptor 2 (Homo sapiens) (UniProt P35968); assay: Inhibition of VEGFR2 (unknown origin) at 1 uM in presence of ATP by hotspot kinase assay
TK-10 [10] = assay: Anticancer activity against human TK-10 cells assessed as cell growth inhibition incubated for 48 hrs by SRB assay; format: functional
K562 = assay: Anticancer activity against human K562 cells assessed as cell growth inhibition incubated for 48 hrs by SRB assay; format: functional
COLO 205 = assay: Anticancer activity against human COLO 205 cells assessed as cell growth inhibition incubated for 48 hrs by SRB assay; format: functional
[11] = target: Receptor-type tyrosine-protein kinase FLT3 (Homo sapiens) (UniProt P36888); assay: Inhibition of FLT3 (unknown origin) at 1 uM in presence of ATP by hotspot kinase assay
BT-549 [12] = assay: Anticancer activity against human BT-549 cells assessed as cell growth inhibition incubated for 48 hrs by SRB assay; format: functional
NCI/ADR-RES = assay: Anticancer activity against human NCI/ADR-RES cells assessed as total cell growth inhibition incubated for 48 hrs by SRB assay; format: functional
SK-OV-3 = assay: Anticancer activity against human SK-OV-3 cells assessed as total cell growth inhibition incubated for 48 hrs by SRB assay; format: functional
U-251 = assay: Anticancer activity against human U-251 cells assessed as cell growth inhibition incubated for 48 hrs by SRB assay; format: functional
LOX IMVI [13] = assay: Anticancer activity against human LOX IMVI cells assessed as total cell growth inhibition incubated for 48 hrs by SRB assay; format: functional
TK-10 [14] = assay: Anticancer activity against human TK-10 cells assessed as total cell growth inhibition incubated for 48 hrs by SRB assay; format: functional
MCF7 [15] = assay: Anticancer activity against human MCF7 cells assessed as cell growth inhibition incubated for 48 hrs by SRB assay; format: functional
MDA-MB-231 [16] = assay: Anticancer activity against human MDA-MB-231 cells assessed as cell growth inhibition incubated for 48 hrs by SRB assay; format: functional
MDA-MB-231 [17] = assay: Anticancer activity against human MDA-MB-231 cells assessed as total cell growth inhibition incubated for 48 hrs by SRB assay; format: functional
SF-268 = assay: Anticancer activity against human SF-268 cells assessed as total cell growth inhibition incubated for 48 hrs by SRB assay; format: functional
NCI-H322M = assay: Anticancer activity against human NCI-H322M cells assessed as cell growth inhibition incubated for 48 hrs by SRB assay; format: functional
IGROV-1 [18] = assay: Anticancer activity against human IGROV-1 cells assessed as total cell growth inhibition incubated for 48 hrs by SRB assay; format: functional
UO-31 [19] = assay: Anticancer activity against human UO-31 cells assessed as total cell growth inhibition incubated for 48 hrs by SRB assay; format: functional
[20] = system: Serine/threonine-protein kinase B-raf (Homo sapiens), P15056 [V600E]; assay: Inhibition of B-RAF V600E mutant (unknown origin) at 1 uM in presence of ATP by hotspot kinase assay
RXF 393 = assay: Anticancer activity against human RXF 393 cells assessed as cell growth inhibition incubated for 48 hrs by SRB assay; format: functional
UO-31 [21] = assay: Anticancer activity against human UO-31 cells assessed as cell growth inhibition incubated for 48 hrs by SRB assay; format: functional
OVCAR-5 = assay: Anticancer activity against human OVCAR-5 cells assessed as total cell growth inhibition incubated for 48 hrs by SRB assay; format: functional
BT-549 [22] = assay: Anticancer activity against human BT-549 cells assessed as total cell growth inhibition incubated for 48 hrs by SRB assay; format: functional

Chain of Vascular endothelial growth factor receptor 2 (Homo sapiens) (P35968 whole entry): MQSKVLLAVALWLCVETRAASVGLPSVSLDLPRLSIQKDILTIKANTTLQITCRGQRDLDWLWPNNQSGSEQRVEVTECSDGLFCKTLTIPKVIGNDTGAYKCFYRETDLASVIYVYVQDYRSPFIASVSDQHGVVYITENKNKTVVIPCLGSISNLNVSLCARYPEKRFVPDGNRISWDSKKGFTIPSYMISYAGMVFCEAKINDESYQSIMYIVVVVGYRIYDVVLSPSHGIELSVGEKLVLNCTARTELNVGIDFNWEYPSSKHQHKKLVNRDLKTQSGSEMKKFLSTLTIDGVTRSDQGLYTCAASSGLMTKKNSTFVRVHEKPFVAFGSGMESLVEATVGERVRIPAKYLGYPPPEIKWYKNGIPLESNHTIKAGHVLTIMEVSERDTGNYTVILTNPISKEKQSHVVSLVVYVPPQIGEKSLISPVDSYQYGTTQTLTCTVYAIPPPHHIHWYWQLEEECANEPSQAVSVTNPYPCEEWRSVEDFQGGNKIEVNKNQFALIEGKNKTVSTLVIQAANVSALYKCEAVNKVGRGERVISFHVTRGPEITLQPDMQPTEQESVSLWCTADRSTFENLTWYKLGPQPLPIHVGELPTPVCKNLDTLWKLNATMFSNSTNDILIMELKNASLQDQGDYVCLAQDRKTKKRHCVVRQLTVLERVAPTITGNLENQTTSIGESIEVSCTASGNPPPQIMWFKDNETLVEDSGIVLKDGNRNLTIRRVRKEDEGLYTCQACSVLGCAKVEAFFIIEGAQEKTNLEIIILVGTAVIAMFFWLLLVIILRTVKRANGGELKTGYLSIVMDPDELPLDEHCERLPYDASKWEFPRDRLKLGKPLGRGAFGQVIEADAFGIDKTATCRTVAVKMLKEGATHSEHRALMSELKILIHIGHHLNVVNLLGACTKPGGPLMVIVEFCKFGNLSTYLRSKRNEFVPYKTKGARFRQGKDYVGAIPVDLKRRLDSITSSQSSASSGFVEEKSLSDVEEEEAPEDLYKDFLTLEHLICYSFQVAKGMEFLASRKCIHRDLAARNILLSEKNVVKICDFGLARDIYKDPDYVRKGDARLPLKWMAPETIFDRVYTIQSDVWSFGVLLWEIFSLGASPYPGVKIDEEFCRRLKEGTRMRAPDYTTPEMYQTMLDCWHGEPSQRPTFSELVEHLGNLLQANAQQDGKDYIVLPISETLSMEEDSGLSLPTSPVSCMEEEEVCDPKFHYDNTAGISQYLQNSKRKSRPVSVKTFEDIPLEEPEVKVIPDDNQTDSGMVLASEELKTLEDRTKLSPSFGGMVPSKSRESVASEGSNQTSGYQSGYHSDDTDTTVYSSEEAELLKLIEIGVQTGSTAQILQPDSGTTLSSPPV
Chain of Serine/threonine-protein kinase B-raf (Homo sapiens), P15056 [V600E] (P15056 whole entry V600E): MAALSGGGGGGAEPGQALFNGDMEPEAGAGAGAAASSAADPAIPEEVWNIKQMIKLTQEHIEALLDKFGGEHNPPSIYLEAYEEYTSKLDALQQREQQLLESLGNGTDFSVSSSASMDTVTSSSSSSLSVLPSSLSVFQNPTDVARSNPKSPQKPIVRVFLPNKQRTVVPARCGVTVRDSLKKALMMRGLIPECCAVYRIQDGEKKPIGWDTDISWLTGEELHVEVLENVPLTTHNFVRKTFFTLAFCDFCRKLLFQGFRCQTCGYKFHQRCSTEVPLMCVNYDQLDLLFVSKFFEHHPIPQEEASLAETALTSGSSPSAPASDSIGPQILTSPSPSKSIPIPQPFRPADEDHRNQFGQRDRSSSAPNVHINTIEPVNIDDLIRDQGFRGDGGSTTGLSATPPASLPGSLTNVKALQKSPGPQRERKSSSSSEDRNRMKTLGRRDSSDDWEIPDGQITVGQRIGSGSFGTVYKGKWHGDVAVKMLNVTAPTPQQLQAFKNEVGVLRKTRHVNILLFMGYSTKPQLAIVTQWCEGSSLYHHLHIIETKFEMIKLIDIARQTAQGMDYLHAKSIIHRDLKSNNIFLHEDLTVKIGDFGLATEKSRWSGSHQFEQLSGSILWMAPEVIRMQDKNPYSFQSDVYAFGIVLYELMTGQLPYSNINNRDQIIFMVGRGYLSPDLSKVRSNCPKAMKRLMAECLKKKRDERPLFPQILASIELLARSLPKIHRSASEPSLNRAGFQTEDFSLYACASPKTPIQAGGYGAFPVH
Chain of Receptor-type tyrosine-protein kinase FLT3 (Homo sapiens) (P36888 whole entry): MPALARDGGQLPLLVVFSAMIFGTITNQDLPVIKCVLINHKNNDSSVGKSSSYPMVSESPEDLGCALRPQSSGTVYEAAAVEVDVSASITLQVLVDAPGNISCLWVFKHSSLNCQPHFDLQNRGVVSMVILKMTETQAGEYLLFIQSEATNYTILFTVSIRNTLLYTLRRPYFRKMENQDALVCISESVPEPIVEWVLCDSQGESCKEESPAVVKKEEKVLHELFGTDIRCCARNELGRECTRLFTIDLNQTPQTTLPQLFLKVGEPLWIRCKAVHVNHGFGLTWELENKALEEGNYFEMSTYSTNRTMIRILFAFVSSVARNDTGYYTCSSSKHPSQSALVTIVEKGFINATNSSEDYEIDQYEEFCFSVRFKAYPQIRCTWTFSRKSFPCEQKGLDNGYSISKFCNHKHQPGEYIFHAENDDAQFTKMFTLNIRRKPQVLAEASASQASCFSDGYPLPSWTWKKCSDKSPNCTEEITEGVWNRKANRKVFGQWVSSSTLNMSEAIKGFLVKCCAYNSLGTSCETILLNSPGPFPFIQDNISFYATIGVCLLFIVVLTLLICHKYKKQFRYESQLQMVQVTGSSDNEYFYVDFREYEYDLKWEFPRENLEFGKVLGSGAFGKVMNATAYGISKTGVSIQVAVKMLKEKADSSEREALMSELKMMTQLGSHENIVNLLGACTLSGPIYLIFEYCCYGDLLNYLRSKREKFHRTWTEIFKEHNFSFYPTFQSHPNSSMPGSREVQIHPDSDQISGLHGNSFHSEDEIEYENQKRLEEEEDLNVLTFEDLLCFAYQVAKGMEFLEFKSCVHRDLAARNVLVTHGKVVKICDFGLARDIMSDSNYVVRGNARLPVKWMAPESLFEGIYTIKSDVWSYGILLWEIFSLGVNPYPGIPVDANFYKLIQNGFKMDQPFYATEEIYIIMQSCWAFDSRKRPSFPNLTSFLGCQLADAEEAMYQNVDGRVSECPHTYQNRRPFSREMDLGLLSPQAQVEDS

logD [2]: 2.73
GI50 (SK-MEL-2 [3]): 1.65 µM
inhibition [6]: 1.56%
GI50 (NCI-H522): 1.43 µM
solubility [8]: 349 µM (≈ 221 µg/mL)
GI50 (CCRF-CEM): 1.45 µM
inhibition [9]: 2.32%
GI50 (K562): 0.67 µM
GI50 (COLO 205): 1.63 µM
inhibition [11]: 13.2%
GI50 (BT-549 [12]): 2.63 µM
GI50 (U-251): 1.76 µM
GI50 (MCF7 [15]): 1.26 µM
GI50 (MDA-MB-231 [16]): 2 µM
GI50 (NCI-H322M): 2.82 µM
inhibition [20]: 28.5%
Structure (SMILES): COc1cc2cc(Oc3ccc(NC(=O)Nc4ccc(Cl)c(C(F)(F)F)c4)cc3)c(C)nc2cc1OCCN1CCOCC1
TGI (SK-MEL-2 [1]): 4.06 µM
TGI (SK-MEL-28): 3.12 µM
GI50 (HOP-62): 2.05 µM
TGI (NCI-H23): 3.89 µM
TGI (SN12C): 56.2 µM
TGI (SF-539): 3.26 µM
TGI (HCC 2998): 11.1 µM
TGI (UACC-62): 3.46 µM
GI50 (CAKI-1): 1.8 µM
TGI (DU-145): 13.8 µM
TGI (HL-60): 7.56 µM
GI50 (LOX IMVI [4]): 1.39 µM
TGI (SNB-19): 19.8 µM
GI50 (KM12): 5.3 µM
TGI (SK-MEL-5): 2.37 µM
GI50 (IGROV-1 [5]): 2.43 µM
TGI (MCF7 [7]): 3.33 µM
TGI (RPMI-8226): 4.34 µM
TGI (HT-29): 11.2 µM
TGI (EKVX): 13.7 µM
GI50 (TK-10 [10]): 4.97 µM
TGI (NCI/ADR-RES): 12.6 µM
TGI (SK-OV-3): 17.5 µM
TGI (LOX IMVI [13]): 2.81 µM
TGI (TK-10 [14]): 35.2 µM
TGI (MDA-MB-231 [17]): 5.07 µM
TGI (SF-268): 8.44 µM
TGI (IGROV-1 [18]): 23.2 µM
TGI (UO-31 [19]): 3.34 µM
GI50 (RXF 393): 1.77 µM
GI50 (UO-31 [21]): 1.4 µM
TGI (OVCAR-5): 65.2 µM
TGI (BT-549 [22]): 9.33 µM
